# From US8557532B2, “Diagnosis and treatment of drug-resistant Ewing'S sarcoma” (The University of Utah Research Foundation, priority 2010, dated 2013)
# Columns and labels:
# [1] = test system: Ewing's sarcoma cells with decreased levels of GSTM4; experiment: MTT survival assay, wild-type (luc-RNAi) versus reduced GSTM4 (GSTM4-4-RNAi) Ewing's sarcoma cells; type: cell-based, human
# Protocol: Chemotherapeutic sensitivity assays. The sensitivity of Ewing's sarcoma cells to chemotherapeutic agents was determined via the following experimental procedures. The indicated Ewing's sarcoma cells were seeded at a density of 2×10^4 cells/well in 24-well plates on day-0. On day 1, cells were incubated with varying concentrations of the indicated drug or drugs for 3 days. Subsequently, MTT cell proliferation assays were performed according to the manufacturer's instructions (Cayman Chemical Company, Ann Arbor, Mich.).
# To test whether GSTM4 contributed to the chemotherapeutic resistance profile of Ewing's sarcoma, wild-type (luc-RNAi) and reduced GSTM4 (GSTM4-4-RNAi) cells were treated with increasing dosages of chemotherapeutic drugs and tested using MTT survival assays. The chemotherapeutic agents that were tested included etoposide, doxorubicin, and melphalan.
# It was further determined that GSTM4 can alter the sensitivity of Ewing's sarcoma cells for fenretinide. […] It was further determined that decreased GSTM4 levels can change intracellular redox potential.
# JS-K (provided by Dr. Paul Shami at the University of Utah) is a GST-activated prodrug with potent anti-neoplastic activity. A673, Ewing's sarcoma, cells with wild type (Luc-RNAi) or decreased GSTM4 levels (GSTM4-RNAi infected cells) were seeded in 24-well plates at a density of 2×10^4 cells/well. GSTM4 decreased cells or negative controls were treated with increasing concentrations of JS-K (0, 0.3125, 0.625, 1.25, 2.5, 5, or 10 μM) for 72 hours, followed by an MTT cell viability analysis.
# [2] = test system: A673 cells; experiment: MTT cell proliferation assay in A673 Ewing's sarcoma cells; type: cell-based; details: Homo sapiens, 72 h, 3 days, read-out: IC50, inhibition of A673 cell proliferation
# Protocol: The A673 cells were seeded at a density of 2×10^4 cells/well in 24-well plate on day 0.
SMILES,Sensitivity of cells with decreased GSTM4 levels to the drug compared to control cells [1],IC50 [2]
COc1cc([C@@H]2c3cc4c(cc3[C@@H](O[C@@H]3O[C@@H]5CO[C@@H](C)O[C@H]5[C@H](O)[C@H]3O)[C@H]3COC(=O)[C@H]23)OCO4)cc(OC)c1O [etoposide],increase in sensitivity,
COc1cccc2c1C(=O)c1c(O)c3c(c(O)c1C2=O)C[C@@](O)(C(=O)CO)C[C@@H]3O[C@H]1C[C@H](N)[C@H](O)[C@H](C)O1 [doxorubicin],not sensitive,
"CCOC(=O)N1CCN(/[N+]([O-])=N/Oc2ccc([N+](=O)[O-])cc2[N+](=O)[O-])CC1 [JS-K, O^2-(2,4-Dinitrophenyl)1-[(4-Ethoxycarbonyl)piperazin-1-yl]diazen-1-ium-1,2-diolate]",less sensitive,
"O=[N+]([O-])c1ccc(SCCCCCCO)c2nonc12 [NBDHEX, 6-(7-nitro-2,1,3-benzoxadiazol-4-ylthio) hexanol]",,500 nM
CC1=C(/C=C/C(C)=C/C=C/C(C)=C/C(=O)Nc2ccc(O)cc2)C(C)(C)CCC1 [fenretinide],more sensitive,
